In ChEMBL document CHEMBL4038280, “Synthesis and human/bacterial carbonic anhydrase inhibition with a series of sulfonamides incorporating phthalimido moieties” (Bioorg Med Chem, 2017):

Key:
[1] = Inhibition of Vibrio cholerae alpha carbonic anhydrase preincubated for 15 mins by stopped flow CO2 hydration assay
[2] = Inhibition of Vibrio cholerae beta carbonic anhydrase preincubated for 15 mins by stopped flow CO2 hydration assay

Structure (SMILES) | Ki [1] | Ki [2]
NS(=O)(=O)c1ccc(CN2C(=O)c3ccc(C(=O)Nc4ccc(I)cc4C(=O)O)cc3C2=O)cc1 | 1.33 µM | 6.78 µM
COc1cc(NC(=O)c2ccc3c(c2)C(=O)N(Cc2ccc(S(N)(=O)=O)cc2)C3=O)c(C(=O)O)cc1OC | 2.93 µM | 9.26 µM
Cc1ccc(NC(=O)c2ccc3c(c2)C(=O)N(Cc2ccc(S(N)(=O)=O)cc2)C3=O)c(C(=O)O)c1 | 2.59 µM | 8.2 µM
NS(=O)(=O)c1ccc(CCN2C(=O)c3ccc(C(=O)Nc4ccc(I)cc4C(=O)O)cc3C2=O)cc1 | 2.58 µM | 6.75 µM
Cc1ccc(NC(=O)c2ccc3c(c2)C(=O)N(c2ccc(S(N)(=O)=O)cc2)C3=O)c(C(=O)O)c1 | 1.68 µM | 5.42 µM
Cc1ccc(NC(=O)c2ccc3c(c2)C(=O)N(CCc2ccc(S(N)(=O)=O)cc2)C3=O)c(C(=O)O)c1 | 1.96 µM | 9.26 µM
COc1cc(NC(=O)c2ccc3c(c2)C(=O)N(CCc2ccc(S(N)(=O)=O)cc2)C3=O)c(C(=O)O)cc1OC | 3.19 µM | 8.58 µM
NS(=O)(=O)c1ccc(N2C(=O)c3ccc(C(=O)Nc4ccc(I)cc4C(=O)O)cc3C2=O)cc1 | 0.281 µM | 5.4 µM
COc1cc(NC(=O)c2ccc3c(c2)C(=O)N(c2ccc(S(N)(=O)=O)cc2)C3=O)c(C(=O)O)cc1OC | 2.84 µM | 7.97 µM
